Experimental data as given in ChEMBL document CHEMBL3870338, “Microwave assisted synthesis of novel tetrazole/sulfonamide derivatives based on octahydroacridine, xanthene and chromene skeletons as inhibitors of the carbonic anhydrases isoforms I, II, IV and VII” (Bioorg Med Chem Lett, 2017).
pKi: −log10 of the molar value.

What was measured:
Carbonic anhydrase 7 = Carbonic anhydrase 7 (Homo sapiens, UniProt P43166); experiment: Inhibition of human recombinant carbonic anhydrase 7 expressed in Escherichia coli assessed as reduction in CO2 hydration preincubated for 15 mins prior to testing measured for 10 to 100 secs by stopped-flow assay
Carbonic anhydrase 7, sequence (P43166 whole entry): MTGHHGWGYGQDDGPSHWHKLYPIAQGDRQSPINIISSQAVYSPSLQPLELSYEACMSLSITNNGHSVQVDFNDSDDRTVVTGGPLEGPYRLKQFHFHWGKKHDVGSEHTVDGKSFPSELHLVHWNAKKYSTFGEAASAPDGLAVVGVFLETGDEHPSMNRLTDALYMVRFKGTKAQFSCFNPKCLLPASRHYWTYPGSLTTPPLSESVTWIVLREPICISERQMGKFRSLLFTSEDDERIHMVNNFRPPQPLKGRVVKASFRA

Carbonic anhydrase 4 = Carbonic anhydrase 4 (Homo sapiens, UniProt P22748); experiment: Inhibition of human recombinant carbonic anhydrase 4 expressed in Escherichia coli assessed as reduction in CO2 hydration preincubated for 15 mins prior to testing measured for 10 to 100 secs by stopped-flow assay
Carbonic anhydrase 4, sequence (P22748 whole entry): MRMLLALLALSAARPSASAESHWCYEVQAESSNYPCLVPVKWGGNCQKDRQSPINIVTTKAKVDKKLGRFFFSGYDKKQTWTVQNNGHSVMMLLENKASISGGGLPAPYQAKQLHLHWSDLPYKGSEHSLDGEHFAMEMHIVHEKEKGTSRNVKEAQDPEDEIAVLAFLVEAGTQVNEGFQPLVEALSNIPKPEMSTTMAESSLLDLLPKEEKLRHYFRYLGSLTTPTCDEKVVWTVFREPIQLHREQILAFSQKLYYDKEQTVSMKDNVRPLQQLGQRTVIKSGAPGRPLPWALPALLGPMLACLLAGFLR

Carbonic anhydrase 2 = Carbonic anhydrase 2 (Homo sapiens, UniProt P00918); experiment: Inhibition of human recombinant carbonic anhydrase 2 expressed in Escherichia coli assessed as reduction in CO2 hydration preincubated for 15 mins prior to testing measured for 10 to 100 secs by stopped-flow assay
Carbonic anhydrase 1 = Carbonic anhydrase 1 (Homo sapiens, UniProt P00915); experiment: Inhibition of human recombinant carbonic anhydrase 1 expressed in Escherichia coli assessed as reduction in CO2 hydration preincubated for 15 mins prior to testing measured for 10 to 100 secs by stopped-flow assay
Carbonic anhydrase 1, sequence (P00915 whole entry): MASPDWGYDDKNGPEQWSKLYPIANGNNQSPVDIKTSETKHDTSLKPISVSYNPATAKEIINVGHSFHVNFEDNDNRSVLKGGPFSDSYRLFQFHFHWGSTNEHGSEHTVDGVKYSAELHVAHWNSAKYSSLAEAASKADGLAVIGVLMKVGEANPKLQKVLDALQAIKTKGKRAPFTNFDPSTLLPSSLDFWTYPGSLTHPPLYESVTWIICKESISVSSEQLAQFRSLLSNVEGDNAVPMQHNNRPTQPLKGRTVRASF

Measured: pKi

N#CC1=C(N)OC2=C(C(=O)CCC2)C1c1cccc(-c2nnn[nH]2)c1 (stereo not given)
< 5.00: Carbonic anhydrase 7 | Carbonic anhydrase 4 | Carbonic anhydrase 2 | Carbonic anhydrase 1

CC1(C)CC(=O)C2=C(C1)OC1=C(C(=O)CC(C)(C)C1)C2c1ccc(-c2nnn[nH]2)cc1
< 5.00: Carbonic anhydrase 7 | Carbonic anhydrase 4 | Carbonic anhydrase 2 | Carbonic anhydrase 1

CC1(C)CC(=O)C2=C(C1)OC(N)=C(C#N)C2c1ccc(-c2nnn[nH]2)cc1 (stereo not given)
< 5.00: Carbonic anhydrase 7 | Carbonic anhydrase 4 | Carbonic anhydrase 2 | Carbonic anhydrase 1

O=Cc1ccc(-c2nnn[nH]2)cc1
< 5.00: Carbonic anhydrase 7 | Carbonic anhydrase 4 | Carbonic anhydrase 2 | Carbonic anhydrase 1

N#CC1=C(N)OC2=C(C(=O)CCC2)C1c1ccc(-c2nnn[nH]2)cc1 (stereo not given)
< 5.00: Carbonic anhydrase 7 | Carbonic anhydrase 4 | Carbonic anhydrase 2 | Carbonic anhydrase 1

O=Cc1cccc(-c2nnn[nH]2)c1
< 5.00: Carbonic anhydrase 7 | Carbonic anhydrase 4 | Carbonic anhydrase 2 | Carbonic anhydrase 1

O=C1CCCC2=C1C(c1ccc(-c3nnn[nH]3)cc1)C1=C(CCCC1=O)O2
< 5.00: Carbonic anhydrase 7 | Carbonic anhydrase 4 | Carbonic anhydrase 2 | Carbonic anhydrase 1

CC1(C)CC(=O)C2=C(C1)OC1=C(C(=O)CC(C)(C)C1)C2c1cccc(-c2nnn[nH]2)c1
< 5.00: Carbonic anhydrase 7 | Carbonic anhydrase 4 | Carbonic anhydrase 2 | Carbonic anhydrase 1

O=C1CCCC2=C1C(c1cccc(-c3nnn[nH]3)c1)C1=C(CCCC1=O)O2
< 5.00: Carbonic anhydrase 7 | Carbonic anhydrase 4 | Carbonic anhydrase 2 | Carbonic anhydrase 1

CC1(C)CC(=O)C2=C(C1)OC(N)=C(C#N)C2c1cccc(-c2nnn[nH]2)c1 (stereo not given)
< 5.00: Carbonic anhydrase 7 | Carbonic anhydrase 4 | Carbonic anhydrase 2 | Carbonic anhydrase 1
